Key:
[1] = Analgesic activity, Straub-Tail assay (Table 5); format: in vivo; settings: for ED50: Straub-Tail assay
Excerpt: A wide variety of biological assays have been used to evaluate the ability of a compound to act as an analgesic. Any of these known assays can be used to evaluate the analgesic ability of the compounds disclosed herein. The Straub-tail reaction, which is characteristic of opiate alkaloids, has been used as an assay for opiate agonists and antagonists. The assay is described in detail in Br. J. of Pharmacol. 1969, 36, 225. Another accepted assay for analgesic activity is the hot plate analgesia assay, described in J. of Pharmacol. Exp. Therap. 1953, 107, 385. An assay for the evaluation of the ability of a compound to bind to an opiate receptor is described in Mol. Pharmacol. 1974, 10, 868.
Evaluation of Analgesic Activity
Table 5 provides the analgesic activity measured as ED50 (μg/Kg) for selected compounds disclosed herein, as determined using the Straub-Tail assay, as describe by J. Daly et al. J. Am. […] Chem. Soc. 1992, 114, 3475; T. Li, et al. Bioorganic and Medicinal Chemistry Letters 1993, 3, 2759.

[2] = Analgesic activity, Straub-Tail assay (Table 5); format: in vivo
[3] = Tail-flick assay in mice and rats (antinociception); format: in vivo; settings: for Tail-Flick Assay ED50 % Effect After 5 min. / Tail-Flick Assay ED50 % Effect After 60 min.: (mg/kg)
Method: Tail-Flick Assay in Mice and Rats
Female CD-1 mice (20-25 g, Charles River Labs) and male CD rats (300-400 g, Charles River Labs) were housed in groups of two and five, respectively. Animals were given food and water ad libitum. Most studies were performed using groups of 5 animals per treatment unless otherwise noted.
Antinociceptive effects (i.e., analgesia) of test compounds in mice and rats were measured by the tail-flick test using a tail-flick analgesia meter (EMDIE Instrument Co.). A maximum latency of 10 sec was imposed if no response occurred within that time. Antinociceptive activity, measured as % MPE, was calculated as [(test-control)/(10-control)×100)].
Duration of compound and (-)-nicotine-induced antinociception was assessed in mice by measuring antinociception at 2, 5, 10, 20 min after compound (20 μg/kg, s.c.) or nicotine (5 mg/kg, s.c.).
Mice (7/group) or rats were pretreated i.v. (0.9% saline or antagonist, mecamylamine, hexamethonium, atropine, naloxone or yohimbine) 10 minutes before administration of compound or nicotine at different doses. A control response (1.5-4 sec) was determined for each animal before treatment and test latencies were assessed at 5 minutes after compound administration (5 ml/kg, s.c.) or 2 min after nicotine (5 ml/kg, s.c.).

[4] = tested on: nicotinic cholinergic receptor; settings: in words; cited from earlier work
[5] = opiate antagonist naloxone; cited from earlier work
[6] = tested on: opiate receptors; settings: in words; cited from earlier work
[7] = target: T1, nicotinic cholinergic receptor (Rattus norvegicus, UniProt P09483+P12390); experiment: Competition with [3H](-)-cytisine for binding to rat cortex (brain) receptors (Tables 7, 8); settings: Table 8, [3H](-)-cytisine, rat brain cortex membranes; read-out: Nicotine Receptor IC50
T1 construct: A membrane fraction from rat brain cortex; tissue Harlan Laboratories; host or cells: rat brain cortex membranes
Excerpt: Competition with Cytisine for Binding to Rat Cortex (Brain) Receptors
[^3 H](-)-Cytisine is a nicotinic cholinergic receptor ligand that binds with high affinity to the a4b2 subtype receptor, the major subtype in rodent brain accounting for >90% of (-)-nicotine binding sites (Flores, et al., 1992; Whiting, et al., 1992). This nicotinic receptor subtype is most sensitive to (-)-nicotine compared to other receptor subtypes (Connolly, et al., 1992). Compounds that compete with cytisine for the nicotinic cholineric receptor are considered nicotine receptor agonists.
A membrane fraction from rat brain cortex (Harlan Laboratories) was prepared using an adaptation of an established method (Pabreza, et al., 1991). Compound and [^3 H]-(-)-cytisine (New England Nuclear, 42 Ci/mmol) were mixed before addition of membrane (0.5 mg protein) and incubated in glass tubes for 75 minutes on ice; total assay volume was 0.24 ml. Parallel assays to determine nonspecific binding were incubated in the presence of 10 uM (-)-nicotine (Sigma). Bound radioactivity was isolated by vacuum filtration onto glass microfiber filters (Whatman, GF-B) using millipore tubs, followed by 3×4 ml buffer wash. Filters were prerinsed with 0.5% polyethyleneimine prior to sample filtration to reduce nonspecific binding. Bound radioactivity was quantitated by scintillation counting.

[8] = target: T2, acetylcholine nicotinic receptor (Rattus norvegicus, UniProt P09483+P12390); experiment: Nicotinic receptor binding, [3H]-NMCI radioligand, rat cortex (Table 6)
T2 construct: rat cortex as the tissue substrate; from tissue; host or cells: rat cortex
Method: Evaluation of Nicotinic Receptor Binding Activity
7-Aza-bicyclo[2.2.1]-heptanes and -heptenes were evaluated for their ability to bind to the acetylcholine nicotinic receptor using a standard binding assay, e.g. X. Zhang and A. Nordberg, Arch. Pharmacol., 348, 28 (1993); R. E. Middleton and J. B. Cohen, Biochemistry, 30, 6987 (1991), with nicotine sulfate as the reference compound, rat cortex as the tissue substrate, and a [^3 H]-NMCI radioligand.

[9] = tested on: a4b2 subtype receptor; settings: in words; cited from earlier work
[10] = Straub-Tail assay, read-out: ED50

`Clc1ccc([C@@H]2C[C@H]3CC[C@@H]2N3)cn1` [d-epibatidine] gave an ED50 [1] greater than 0.1 mg/kg.

`c1cncc(C2CC3CCC2N3)c1` (stereo not shown) [drawing 40] showed an ED50 [2, 10] of 10 mg/kg.

With `Cc1nnc(C2CC3CCC2N3C)o1` (stereo not shown) [drawing 60] the “Tail-Flick Assay ED50 % Effect After 5 min.” value [3] was -2.9% and the “Tail-Flick Assay ED50 % Effect After 60 min.” value [3] was -3.6%.

Compound `CC(C)(C)Oc1ccc([C@H]2C[C@@H]3CC[C@H]2N3)cn1` (relative stereo) has an ED50 [2, 10] of roughly 1 mg/kg.

`Clc1ccc([C@H]2C[C@@H]3C=C[C@H]2N3)cn1` (relative stereo) showed an ED50 [2, 10] of less than 1 mg/kg.

For `Clc1ccc([C@H]2C[C@@H]3CC[C@H]2N3)cn1` (relative stereo) [epibatidine, exo-2-(2-chloro-5-pyridyl)-7-azabicyclo[2.2.1]heptane], the “nicotinic cholinergic receptor activity” value [4] is given as “nicotinic cholinergic receptor agonist”, the “effect of naloxone on Straub-tail response” value [5] is given as “not reversed by the opiate antagonist naloxone” and the “affinity for opiate receptors” value [6] is given as “negligible affinity”.

In the case of `Cc1cc(C2CC3CCC2N3C)on1` (stereo not shown), the IC50 [7] is reported as 0.024 µM.

`CN1[C@H]2CC[C@@H]1[C@@H](c1ccc(Cl)nc1)C2` (relative stereo) showed an ED50 [2, 10] of less than 0.01 mg/kg.

With `N=CN1[C@H]2CC[C@@H]1[C@@H](c1ccc(Cl)nc1)C2` (relative stereo) the “effect in Straub-Tail assay” value ([1]; @ 100 (μg/Kg per column head)) was 99%.

Compound `CN1C2CCC1C(c1ccc3ccccc3n1)C2` (stereo not shown) has an IC50 [7] of 0.077 µM.

For `c1cncc(C2CC3CCC2N3)c1` (stereo not shown) [drawing 55], the Inhibition % ([8]; testing level 10^-5 M) was 104% and the Inhibition % ([8]; testing level 10^-9 M) was 103%.

With `N=CN1C2CCC1C(c1cccnc1)C2` (stereo not shown) the Inhibition % ([8]; testing level 10^-7 M) was 103.9% and the Inhibition % ([8]; testing level 10^-8 M) was 71.3%.

`c1ccc2nc(C3CC4CCC3N4)ccc2c1` (stereo not shown) gave an IC50 [7] of 0.007 µM.

For `C[N+]1(C)[C@H]2CC[C@@H]1[C@@H](c1ccc(Cl)nc1)C2` (relative stereo), the ED50 [2, 10] was 0.1 to 0.2 mg/kg.

`N=CN1C2CCC1C(c1ccc(Cl)nc1)C2` (stereo not shown) showed an Inhibition % ([8]; testing level 10^-7 M) of 104%.

For `O=c1cccc2n1C[C@@H]1CNC[C@H]2C1` [[^3 H](-)-Cytisine], the “affinity for a4b2 subtype receptor” value [9] is listed as “high affinity”.

With `Clc1ccc([C@H]2C[C@@H]3CC[C@H]2N3)cn1` (relative stereo) [drawing 50] the ED50 [1] was 0.01 mg/kg.

In the case of `Cc1noc(C2CC3CCC2N3C)n1` (stereo not shown), the ED50 ([3]; Mus musculus, sc, Table 8) is reported as 0.23 mg/kg.

For `C[N+]1(C)C2CCC1C(c1ccc(Cl)nc1)C2` (stereo not shown), the Inhibition % ([8]; testing level 10^-5 M) was 104% and the Inhibition % ([8]; testing level 10^-7 M) was 100%.

In the case of `Fc1ccc([C@H]2C[C@@H]3CC[C@H]2N3)cn1` (relative stereo), the ED50 [2, 10] is reported as roughly 0.05 mg/kg.

In the case of `c1cncc([C@H]2C[C@@H]3CC[C@H]2N3)c1` (relative stereo), the ED50 [2, 10] is reported as 0.25 mg/kg.

In the case of `Clc1ccc([C@H]2C[C@@H]3CC[C@H]2N3CC2CC2)cn1` (relative stereo), the “effect in Straub-Tail assay” value ([1]; @ 1000 μg/Kg) is reported as 100%.

In the case of `Cc1nnc(C2CC3CCC2N3C)o1` (stereo not shown) [drawing 61], the “Tail-Flick Assay ED50 % Effect After 5 min.” value [3] is reported as 6.7% and the “Tail-Flick Assay ED50 % Effect After 60 min.” value [3] is reported as 24.6%.

In the case of `Cc1cc(C2CC3CCC2N3)on1` (stereo not shown), the IC50 [7] is reported as 0.63 µM.

For `Clc1ccc([C@H]2C[C@@H]3CC[C@H]2N3CCc2ccccc2)cn1` (relative stereo), the ED50 [2, 10] was less than 1 mg/kg.

Compound `ClCCN1[C@H]2CC[C@@H]1[C@@H](c1ccc(Cl)nc1)C2` (relative stereo) has an ED50 [2] of roughly 0.1 mg/kg.

`COc1ccc([C@H]2C[C@@H]3CC[C@H]2N3)cn1` (relative stereo) gave an ED50 [2, 10] of 0.75 mg/kg.
